Results taken from patent publication US6451786B1 (Cephalon, Inc., priority 1997, dated 2002).

Columns and labels:
[1] = test system: dissociated rat embryonic spinal cord culture (ChAT activity); assay: Enhancement of spinal cord ChAT activity in dissociated rat embryonic spinal cord culture; format: cell-based; details: ChAT measured after 2 days in vitro
Source text: ChAT was employed a biochemical marker for functional cholinergic neurons. CHAT activity has been used to study the effects of neurotrophins (e.g., NGF or NT-3) on the survival and/or function of cholinergic neurons. The ChAT assay also has been used as an indication of the regulation of ChAT levels within cholinergic neurons. […] In these assays, a compound was directly added to a dissociated spinal cord culture. […] Neurochem.

[2] = biological target: T1, protein kinase C (UBI; mixed isozymes of a, b, g); assay: Inhibition of protein kinase C activity (Multiscreen TCA in-plate assay); format: biochemical; details: read-out: PKC IC50
T1 construct: 1.5 ng protein kinase C (UBI)
Protocol: Assays were performed in 96-well Multiscreen-DP plates (Millipore). […] The reaction was allowed to proceed for 10 min at 37° C. […] The IC50 values were calculated by fitting the data to the sigmoidal dose-response (variable slope) equation in GraphPad Prism.

[3] = biological target: T2, trkA (Homo sapiens, UniProt P04629); format: cell-based; details: NIH3T3 cells; for inhibition at 0.001 µM: 1 nM compound, read-out: Inhibition Score 1 nM; for inhibition at 0.001 µM / inhibition at 0.01 µM / inhibition at 0.05 µM / inhibition at 0.1 µM: NGF 10 ng/ml, percent decrease in trk protein band; for inhibition at 0.01 µM: 10 nM compound, read-out: Inhibition Score 10 nM; for inhibition at 0.05 µM: 50 nM compound, read-out: Inhibition Score 50 nM; for inhibition at 0.1 µM: 100 nM compound, read-out: Inhibition Score 100 nM
T2 construct: expressed in transfected cells; host or cells: NIH3T3 cells
T2 sequence (P04629 33-796, species assumed): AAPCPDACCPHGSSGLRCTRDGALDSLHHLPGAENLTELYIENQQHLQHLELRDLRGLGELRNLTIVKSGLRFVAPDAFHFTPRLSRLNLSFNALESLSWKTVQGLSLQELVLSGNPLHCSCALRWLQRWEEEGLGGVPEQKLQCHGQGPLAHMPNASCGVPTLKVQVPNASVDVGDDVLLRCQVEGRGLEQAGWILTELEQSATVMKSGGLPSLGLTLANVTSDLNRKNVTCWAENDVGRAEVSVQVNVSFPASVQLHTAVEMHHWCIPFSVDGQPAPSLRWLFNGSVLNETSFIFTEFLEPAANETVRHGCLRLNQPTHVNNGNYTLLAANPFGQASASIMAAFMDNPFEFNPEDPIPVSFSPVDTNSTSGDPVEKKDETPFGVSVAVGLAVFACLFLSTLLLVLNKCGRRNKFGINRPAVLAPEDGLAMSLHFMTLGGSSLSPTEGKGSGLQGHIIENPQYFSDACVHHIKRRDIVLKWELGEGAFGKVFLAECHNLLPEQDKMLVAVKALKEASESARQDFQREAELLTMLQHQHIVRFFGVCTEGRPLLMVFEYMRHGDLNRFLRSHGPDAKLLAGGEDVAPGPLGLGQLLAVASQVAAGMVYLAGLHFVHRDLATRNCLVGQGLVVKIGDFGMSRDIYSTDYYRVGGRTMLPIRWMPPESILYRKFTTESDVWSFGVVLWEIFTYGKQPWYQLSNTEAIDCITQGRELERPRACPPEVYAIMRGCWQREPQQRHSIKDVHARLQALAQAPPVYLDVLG
Protocol: NIH3T3 cells transfected with trkA were grown in 100 mm dishes. […] NGF (Harlan/Bioproducts for Science) was then added to the cells at a concentration of 10 ng/ml for 5 minutes. Cells were lysed in buffer containing detergent and protease inhibitors. Clarified cell lysates were normalized to protein using BCA method and immunoprecipitated with anti-trk antibody.
The immune complexes were collected on Protein A Sepharose beads (Sigma), separated by SDS polyacrylamide gel electrophoresis (SDS-PAGE), and transferred to a polyvinylidene difluoride (PVDF) membrane. The membrane was immunoblotted with anti-phosphotyrosine antibody (UBI), followed by incubation with horseradish peroxidase coupled goat anti-mouse IgG (Bio-Rad).. Phosphorylated proteins were visualized using ECL (Amersham).
The area of the trk protein band was measured and compared to NGF-stimulated control.

[4] = biological target: T3, baculovirus-expressed human trkA cytoplasmic domain (Homo sapiens, UniProt P04629); assay: Inhibition of trkA kinase activity (ELISA-based assay); format: biochemical; details: 40 μM ATP, read-out: trk IC50
T3 construct: baculovirus-expressed human trkA cytoplasmic domain; made in house; host or cells: baculovirus expression system (insect cells)
T3 sequence (P04629 440-796 limits assumed): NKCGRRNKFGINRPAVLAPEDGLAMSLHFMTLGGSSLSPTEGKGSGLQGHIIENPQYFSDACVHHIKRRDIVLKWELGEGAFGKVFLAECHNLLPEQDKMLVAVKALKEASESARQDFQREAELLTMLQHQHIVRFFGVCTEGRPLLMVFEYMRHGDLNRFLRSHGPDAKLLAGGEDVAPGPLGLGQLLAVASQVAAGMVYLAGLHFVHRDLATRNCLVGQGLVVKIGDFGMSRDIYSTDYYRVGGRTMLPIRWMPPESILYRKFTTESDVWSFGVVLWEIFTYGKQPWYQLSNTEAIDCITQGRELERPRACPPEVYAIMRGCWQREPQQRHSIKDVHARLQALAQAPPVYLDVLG
Protocol: An antibody to phosphotyrosine (UBI) was then added, followed by a secondary enzyme-conjugated antibody, alkaline phosphatase-labelled goat anti-mouse IgG (Bio-Rad). The activity of the bound enzyme was measured using an amplified detection system (Gibco-BRL). Inhibition data were analyzed using the sigmoidal dose-response (variable slope) equation in GraphPad Prism.

[5] = test system: rat spinal cord motoneurons; assay: Survival assay using rat spinal cord motoneurons (calcein AM viability); format: cell-based; details: cultures enriched for motoneurons, survival assessed after 4 days (FIG. 8)
Protocol: Spinal cords were dissected from Sprague-Dawley rat fetuses (Charles River Laboratories, Wilmington, Mass.) of embryonic age (E) 14.5-15. Cells from only the ventral portion of the spinal cord were dissociated, and further enriched for motoneurons by centrifugation on a 6.5% step metrizamide gradient, and were analyzed for purity by staining with low affinity neurotrophin receptor antibody (IgG-192, Boehringer-Mannheim). Cells were seeded onto 96-well plates previously coated with poly-1-ornithine and laminin (5 ug/ml each) at a density of 6×10^4 cells/cm^2 in chemically defined serum-free N2 medium (Bottenstein and Sato, 1979). To distinguish attachment from survival effects, 3,9-bis[(ethylthio)methyl]-K-252a (Kaneko et. al., J. Med. Chem 40:1863-1869, 1997) was added to cultures after an initial attachment period of 1-3 hours.
Neuronal survival was assessed after 4 days by calcein AM (Molecular Probes, Eugene, Oreg.) in a fluorimetric viability assay (Bozyczko-Coyne et. al., J. Neurosci. Meth. 50:205-216, 1993). […] The fluorescent signal was read using a plate-reading fluorimeter (Cytofluor 2350) (excitation=485 nm; emission=538 nm). […] Linearity of the fluorescence signal was verified for the concentration and incubation time for the range of cell densities. Microscopic counts of neurons correlated directly with relative fluorescence values.

Row | Structure (SMILES) | IC50 [2] [nM] | inhibition at 0.001 µM [3] [%] | inhibition at 0.01 µM [3] [%] | inhibition at 0.05 µM [3] [%] | inhibition at 0.1 µM [3] [%] | IC50 [4] [nM] | Spinal Cord ChAT % control, Activity at 50 nM [1] [% control] | Spinal Cord ChAT % control, Maximal Activity [1] [% control] | also measured
1 | C[C@]12OC(C[C@@]1(O)CO)n1c3ccccc3c3c4c(c5c6ccccc6n2c5c31)CNC4=O [Compound VII] | 79 | 1 to 25 | 26 to 49 | 76 to 100 | 76 to 100 | – | <120 | – | –
2 | COC(=O)[C@]1(O)CC2O[C@]1(C)n1c3ccccc3c3c4c(c5c6ccccc6n2c5c31)C(=O)NC4 [Compound XIV, 3′-(R)-K-252a] | – | – | – | – | – | – | 147 | 195 | –
3 | C[C@]12OC(C[C@@]1(O)C(=O)O)n1c3ccccc3c3c4c(c5c6ccccc6n2c5c31)CNC4=O [Compound XVI] | – | – | – | – | – | – | – | – | survival of spinal cord motoneurons [5]: significantly enhanced survival
4 | C[C@]1(O)CC2O[C@]1(C)n1c3ccccc3c3c4c(c5c6ccccc6n2c5c31)C(=O)NC4 [Compound X] | > 1000 | 26 to 49 | 50 to 75 | 76 to 100 | 76 to 100 | 2 | <120 | 127 | concentration giving complete inhibition of trkA [3]: < 50 nM; IC50 ([3]; NGF-stimulated, read-out: IC50 for inhibiting trk in a whole cell preparation): < 10 nM

The next lines start with results.

Row | IC50 [2] [nM] | inhibition at 0.001 µM [3] [%] | inhibition at 0.01 µM [3] [%] | inhibition at 0.05 µM [3] [%] | inhibition at 0.1 µM [3] [%] | IC50 [4] [nM] | Structure (SMILES) | Spinal Cord ChAT % control, Activity at 50 nM [1] [% control] | Spinal Cord ChAT % control, Maximal Activity [1] [% control] | also measured
5 | 95 | – | – | – | – | 2 | C[C@]12OC(C[C@H]1CO)n1c3ccccc3c3c4c(c5c6ccccc6n2c5c31)CNC4=O [Compound VI] | <120 | 125 | –
6 | – | – | – | – | – | 21 | C[C@]12OC(C[C@@]1(O)C(N)=O)n1c3ccccc3c3c4c(c5c6ccccc6n2c5c31)CNC4=O [Compound XV] | – | 129 | –
7 | > 1000 | – | – | – | – | 4 | C[C@@]12C=C[C@@H](O1)n1c3ccccc3c3c4c(c5c6ccccc6n2c5c31)CNC4=O [Compound XXIII] | – | – | –
8 | 310 | 26 to 49 | 50 to 75 | 50 to 75 | 50 to 75 | – | C[C@@]1(O)CC2O[C@]1(C)n1c3ccccc3c3c4c(c5c6ccccc6n2c5c31)C(=O)NC4 [Compound XXIX, reference compound] | – | – | complete inhibition of trkA at 100 nM ([3]; 100 nM): did not show complete inhibition
9 | – | – | – | – | – | 7 | C[C@@]1(O)C[C@H]2O[C@]1(C)n1c3ccccc3c3c4c(c5c6ccccc6n2c5c31)C(=O)NC4 [Compound XXIX, reference compound] | – | – | –
